Measured values taken from patent publication US7169772B2, “4,4-difluoro-1,2,3,4-tetrahydro-5H-1-benzazepine derivatives or salts thereof” (Astellas Pharma Inc., priority 2001, dated 2007).

Key:
human V2 receptor = molecular target: T1, human V2 receptor (Homo sapiens, UniProt P30518); assay: V2 receptor binding assay; details: human V2 expression CHO cell membrane, [3H]-Vasopressin 0.5 nM, 25° C., 60 minutes; read-out: Ki (affinity for V2 receptor)
T1 construct: expressed in transfected cells; host or cells: CHO cells
T1 sequence (P30518 whole entry): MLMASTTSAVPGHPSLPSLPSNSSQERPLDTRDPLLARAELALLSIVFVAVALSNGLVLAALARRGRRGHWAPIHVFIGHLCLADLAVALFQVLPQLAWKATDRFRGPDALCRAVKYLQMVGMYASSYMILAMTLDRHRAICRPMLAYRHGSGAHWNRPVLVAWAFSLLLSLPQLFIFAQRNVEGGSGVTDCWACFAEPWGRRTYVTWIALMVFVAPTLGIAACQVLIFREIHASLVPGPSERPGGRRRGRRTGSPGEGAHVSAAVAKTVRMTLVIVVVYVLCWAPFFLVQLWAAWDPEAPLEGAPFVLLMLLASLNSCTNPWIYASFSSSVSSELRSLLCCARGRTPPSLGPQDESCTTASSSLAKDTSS
Method: (1) V2 Receptor Binding Assay
A human V2 expression CHO cell membrane sample was prepared in accordance with a method of Tahara, et al. (British Journal of Pharmacology. Vol 125, p. 1463–1470, 1998). 2 μg of the membrane sample were incubated in a total of 250 μl of 50 mM tris-chloric acid buffer solution (pH=7.4) containing 10 mM MgCl2 and 0.1% bovine serum albumin (BSA), together with [^3H]-Arginine-Vasopressin (hereinafter referred to as ‘[^3H]-Vasopressin’) (0.5 nM, Specific activity=75 Ci mmol) and a test compound (10^−10˜10^−5 M) at 25° C. for 60 minutes. Then, free [^3H]-Vasopressin and receptor binding [^3H]-Vasopressin were separated using a cell harvester, and the receptor binding [^3H]-Vasopressin was adsorbed on a Unifilter Plate GF/B glass filter, sufficiently dried, and then mixed with a microplate scintillation cocktail. The amount of receptor binding [^3H]-Vasopressin was measured using a top count, and inhibition rate was calculated by the following equation. Inhibition Rate(%)=100−(C1−B1)/(C0−B1)×100 • C1: the amount of [^3H]-Vasopressin bound to the membrane sample, when the receptor membrane sample is treated in the coexistence of a test compound of known concentration and [^3H]-Vasopressin • C0: the amount of [^3H]-Vasopressin bound to the membrane sample, when the receptor membrane sample is treated with [^3H]-Vasopressin, in the absence of a test compound • B1: the amount of [^3H]-Vasopressin bound to the membrane sample, when the receptor membrane sample is treated in the coexistence of an excess amount of Vasopressin (10^−6 M) and [^3H]-Vasopressin
Dissociation Coefficient (Ki)=IC50/(1+[L]/Kd) • [L]: the concentration of [^3H]-Vasopressin • Kd: dissociation coefficient of [3H]-Vasopressin for the receptor, calculated from saturation binding assay

CYP3A4 = CYP3A4 (Homo sapiens, UniProt P08684); assay: Cytochrome P450 (3A4) enzyme inhibition assay; type: biochemical; details: substrate 7-benzyloxy-4-(trifluoromethyl)coumarin, 37° C., 30 minutes
Chain of CYP3A4 (P08684 whole entry): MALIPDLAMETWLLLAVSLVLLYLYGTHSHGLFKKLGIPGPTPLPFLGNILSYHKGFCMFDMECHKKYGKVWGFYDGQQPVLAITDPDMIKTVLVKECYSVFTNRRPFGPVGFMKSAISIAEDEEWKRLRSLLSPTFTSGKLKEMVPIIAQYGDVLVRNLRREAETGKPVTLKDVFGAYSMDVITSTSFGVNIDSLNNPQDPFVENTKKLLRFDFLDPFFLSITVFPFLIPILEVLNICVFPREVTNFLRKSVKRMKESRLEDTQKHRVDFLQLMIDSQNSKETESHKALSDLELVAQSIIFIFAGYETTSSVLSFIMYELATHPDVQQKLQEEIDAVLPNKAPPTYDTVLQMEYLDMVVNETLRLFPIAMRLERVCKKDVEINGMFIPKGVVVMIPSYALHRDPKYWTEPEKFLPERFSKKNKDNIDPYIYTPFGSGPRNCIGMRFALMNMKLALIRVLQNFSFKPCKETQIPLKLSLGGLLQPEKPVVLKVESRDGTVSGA
Method: (4) Cytochrome P450 (3A4) Enzyme Inhibition Assay
(§1) The assay was carried out in accordance with a method of Crespi, et al. (Analytical Biochemistry, 248, 188–190, 1997).
A 96 well plate was employed, and 7-benzyloxy-4-(trifluoromethyl)coumarin (5×10^−5 M) as a substrate, a test compound (4.9×10^−8˜5×10^−5 M), and an enzyme (5×10^−9 M) were incubated in a total of 200 μl of a 200 mM phosphate buffer solution (pH=7.4) comprising 8.2 μM NADP+, 0.41 mM glucose-6-phosphate, 0.41 mM MgCl2, and 0.4 Units/ml glucose-6-phosphate dehydrogenase, at 37° C. for 30 minutes. Then, 0.5 M aqueous solution of 2-amino-2-hydroxymethyl-1,3-propanediol containing 80% acetonitrile was added thereto to stop the reaction, and fluorescence intensity was measured with a fluorescent plate reader (excited wavelength: 409 nm, fluorescent wavelength: 530 nm). […] Inhibition Rate (%)=100−(C1−B1)/(C0−B1)×100 • C1: fluorescence intensity in the presence of a known concentration of test compound, enzyme, and a substrate
(§2) C0: fluorescence intensity in the presence of an enzyme and a substrate, in the absence of a test compound • B1: fluorescence intensity of a blank well (5) Cytochrome P450 (2C9) Enzyme Inhibition Effects

CYP2C9 = CYP2C9 (Homo sapiens, UniProt P11712); assay: Cytochrome P450 (2C9) enzyme inhibition effects; type: biochemical; details: substrate 7-methoxy-4-(trifluoromethyl)coumarin, 37° C., 45 minutes
Chain of CYP2C9 (P11712 whole entry): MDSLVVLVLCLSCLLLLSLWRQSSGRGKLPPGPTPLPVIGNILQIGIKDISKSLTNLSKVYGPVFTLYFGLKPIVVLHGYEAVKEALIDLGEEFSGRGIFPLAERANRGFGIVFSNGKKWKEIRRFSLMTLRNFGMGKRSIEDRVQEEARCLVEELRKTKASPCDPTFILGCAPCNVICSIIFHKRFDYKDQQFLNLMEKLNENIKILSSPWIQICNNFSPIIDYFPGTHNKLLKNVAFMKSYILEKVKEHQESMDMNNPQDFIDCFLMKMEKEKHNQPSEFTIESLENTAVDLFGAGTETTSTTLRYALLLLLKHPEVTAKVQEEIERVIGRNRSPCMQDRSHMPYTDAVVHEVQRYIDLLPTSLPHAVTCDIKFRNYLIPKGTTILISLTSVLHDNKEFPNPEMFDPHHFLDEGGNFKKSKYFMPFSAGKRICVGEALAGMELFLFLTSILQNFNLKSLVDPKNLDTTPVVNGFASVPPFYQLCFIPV
Method: as §2, §1
A 96 well plate was employed, and 7-methoxy-4-(trifluoromethyl)coumarin (7.5×10^−5 M) as a substrate, a test compound (4.9×10^−8˜5×10^−5M), and an enzyme (10^−8 M) were incubated in a total of 200 μl of a 200 mM phosphate buffer solution (pH=7.4) comprising 8.2 μM NADP+, 0.41 mM glucose-6-phosphate, 0.41 mM MgCl2, and 0.4 Units/ml glucose-6-phosphate dehydrogenase, at 37° C. for 45 minutes. Then, 0.5 M aqueous solution of 2-amino-2-hydroxymethyl-1,3-propanediol containing 80% acetonitrile was added thereto to stop the reaction, and fluorescence intensity was measured with a fluorescent plate reader (excited wavelength: 409 nm, fluorescent wavelength: 530 nm). […]

Wistar male rats = assay: Antidiuresis assay (oral administration); type: in vivo; details: Rattus norvegicus, read-out: ED50 (amount required for decreasing urinary excretion rate by 50%), 30 ml/kg water load after 15 minutes, urine until 4 hours after water load
Method: (3) Antidiuresis Assay (Oral Administration)
For the assay, Wistar male rats (10˜12 weeks of age) were employed. The test compound was orally administrated, and after 15 minutes, 30 ml/kg of distilled water were orally administrated (water load). Until 4 hours after the water load, urine was collected in a metabolism cage, and the amount of urine when the water load was set to 100% was calculated as the urinary excretion rate. […]

Ki (human V2 receptor)	IC50 (CYP3A4)	IC50 (CYP2C9)	SMILES	ED50 (Wistar male rats)
3.7 nM	–	–	Cc1ccn(-c2ccc(C(=O)N3CCC(F)(F)/C(=C\C(=O)Nc4ccc(C(N)=O)cc4)c4ccccc43)c(Cl)c2)n1 [Example 72, 4-[((2Z)-2-{1-[2-chloro-4-(3-methyl-1H-pyrazol-1-yl)benzoyl]-4,4-difluoro-1,2,3,4-tetrahydro-5H-1-benzazepin-5-ylidene}acetyl)amino]benzamide]	–
4.8 nM	–	–	Cc1ccn(-c2ccc(C(=O)N3CCC(F)(F)/C(=C\C(=O)N4CCCC(C(N)=O)C4)c4ccccc43)c(Cl)c2)n1 (stereo not shown) [Example 58, 1-((2Z)-2-{1-[2-chloro-4-(3-methyl-1H-pyrazol-1-yl)benzoyl]-4,4-difluoro-1,2,3,4-tetrahydro-5H-1-benzazepin-5-ylidene}acetyl)piperidine-3-carboxamide]	–
–	> 20000 nM	13000 nM	Cc1ccn(-c2ccc(C(=O)N3CCC(F)(F)/C(=C\C(N)=O)c4ccccc43)c(Cl)c2)n1 [Example 8, (2Z)-2-{1-[2-chloro-4-(3-methyl-1H-pyrazol-1-yl)benzoyl]-4,4-difluoro-1,2,3,4-tetrahydro-5H-benzazepine}acetamide]	–
2.2 nM	–	–	Cc1ccn(-c2ccc(C(=O)N3CCC(F)(F)/C(=C\C(=O)Nc4cccc(CO)c4)c4ccccc43)c(Cl)c2)n1 [Example 76, (2Z)-2-{1-[2-chloro-4-(3-methyl-1H-pyrazol-1-yl)benzoyl]-4,4-difluoro-1,2,3,4-tetrahydro-5H-1-benzazepin-5-ylidene}-N-[3-(hydroxymethyl)phenyl]acetamide]	0.22 mg/kg
5.6 nM	–	–	Cc1cccc(CNC(=O)/C=C2/c3ccccc3N(C(=O)c3ccc(-n4ccc(C)n4)cc3Cl)CCC2(F)F)n1 [Example 119, (2Z)-2-{1-[2-chloro-4-(3-methyl 1H-pyrazol-1-yl)benzoyl]-4,4-difluoro-1,2,3,4-tetrahydro-5H-1-benzazepin-5-ylidene}-N-[(6-methylpyridin-2-yl)methyl]acetamide]	–
–	10000 nM	11000 nM	NC(=O)CNC(=O)/C=C1/c2ccccc2N(C(=O)c2ccc(N3CCCC3)cc2Cl)CCC1(F)F [Example 220, (2Z)-N-(2-amino-2-oxoethyl)-2-[1-(2-chloro-4-pyrrolidin-1-ylbenzoyl)-4,4-difluoro-1,2,3,4-tetrahydro-5H-1-benzazepin-5-ylidene]acetamide]	–
5.6 nM	–	–	Cc1cccc(NC(=O)/C=C2/c3ccccc3N(C(=O)c3ccc(-n4ccc(C)n4)cc3Cl)CCC2(F)F)c1 [Example 74, (2Z)-2-{1-[2-chloro-4-(3-methyl-1H-pyrazol-1-yl)benzoyl]-4,4-difluoro-1,2,3,4-tetrahydro-5H-1-benzazepin-5-ylidene}-N-(3-methylphenyl)acetamide]	–

SMILES	Ki (human V2 receptor)	IC50 (CYP3A4)	IC50 (CYP2C9)	ED50 (Wistar male rats)
CC(C)NC(=O)C[C@H]1CCCN(C(=O)c2ccc(N3CCCC3)cc2Cl)c2ccccc21 [Control, 2-[(5R)-1-(2-chloro-4-pyrrolidin-1-ylbenzoyl)-2,3,4,5-tetrahydro-1H-1-benzazepin-5-yl]-N-isopropyacetamide, reference compound]	68 nM	< 91 nM	< 91 nM	–
